# According to ChEMBL document CHEMBL4819090, “Discovery of a new series of PI3K-δ inhibitors from Virtual Screening” (Bioorg Med Chem Lett, 2021):
# Tests used:
# [1] = biological target: Phosphatidylinositol 4,5-bisphosphate 3-kinase catalytic subunit gamma isoform (Homo sapiens, UniProt P48736); assay: Inhibition of PI3Kgamma (unknown origin) by HTRF assay
# [2] = biological target: Phosphatidylinositol 4,5-bisphosphate 3-kinase catalytic subunit alpha isoform (Homo sapiens, UniProt P42336); assay: Inhibition of PI3Kalpha (unknown origin) by HTRF assay
# [3] = biological target: Phosphatidylinositol 4,5-bisphosphate 3-kinase catalytic subunit beta isoform (Homo sapiens, UniProt P42338); assay: Inhibition of PI3Kbeta (unknown origin) by HTRF assay
# [4] = Half life in Wistar Han rat at 2 mg/kg, iv; assay type: ADME, organism-based; details: in vivo
# [5] = Clearance in Wistar Han rat at 2 mg/kg, iv; assay type: ADME, organism-based; details: in vivo
# [6] = Volume of distribution in Wistar Han rat at 2 mg/kg, iv; assay type: ADME, organism-based; details: in vivo
# Chain of Phosphatidylinositol 4,5-bisphosphate 3-kinase catalytic subunit gamma isoform (P48736 whole entry, canonical isoform): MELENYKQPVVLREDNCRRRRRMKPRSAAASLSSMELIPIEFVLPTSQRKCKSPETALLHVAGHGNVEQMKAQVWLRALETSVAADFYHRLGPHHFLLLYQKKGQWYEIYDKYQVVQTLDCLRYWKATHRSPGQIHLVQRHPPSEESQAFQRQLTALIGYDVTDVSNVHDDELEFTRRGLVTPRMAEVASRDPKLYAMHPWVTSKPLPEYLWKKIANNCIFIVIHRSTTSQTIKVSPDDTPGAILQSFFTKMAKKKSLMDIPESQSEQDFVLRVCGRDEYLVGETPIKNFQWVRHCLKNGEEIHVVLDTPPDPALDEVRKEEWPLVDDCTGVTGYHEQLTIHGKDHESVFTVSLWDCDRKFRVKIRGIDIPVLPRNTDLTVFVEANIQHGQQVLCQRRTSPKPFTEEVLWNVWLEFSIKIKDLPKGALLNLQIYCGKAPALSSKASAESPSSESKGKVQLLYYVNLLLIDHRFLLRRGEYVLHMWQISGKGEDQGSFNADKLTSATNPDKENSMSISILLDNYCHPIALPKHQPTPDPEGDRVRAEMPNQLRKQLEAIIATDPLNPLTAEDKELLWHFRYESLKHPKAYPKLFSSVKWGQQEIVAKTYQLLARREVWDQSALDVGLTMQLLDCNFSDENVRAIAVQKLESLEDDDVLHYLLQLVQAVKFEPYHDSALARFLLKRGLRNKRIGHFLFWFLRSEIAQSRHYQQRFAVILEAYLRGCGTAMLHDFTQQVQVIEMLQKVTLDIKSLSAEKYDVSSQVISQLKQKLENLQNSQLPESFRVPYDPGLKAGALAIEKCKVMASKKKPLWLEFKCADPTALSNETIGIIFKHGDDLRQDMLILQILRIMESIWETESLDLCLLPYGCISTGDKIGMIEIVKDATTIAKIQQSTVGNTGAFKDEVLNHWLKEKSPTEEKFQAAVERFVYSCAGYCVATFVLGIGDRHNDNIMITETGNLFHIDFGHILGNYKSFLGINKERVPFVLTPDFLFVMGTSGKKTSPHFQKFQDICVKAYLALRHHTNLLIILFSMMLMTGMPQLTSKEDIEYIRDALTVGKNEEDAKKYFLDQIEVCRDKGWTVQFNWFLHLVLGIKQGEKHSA
# Chain of Phosphatidylinositol 4,5-bisphosphate 3-kinase catalytic subunit alpha isoform (P42336 whole entry, canonical isoform): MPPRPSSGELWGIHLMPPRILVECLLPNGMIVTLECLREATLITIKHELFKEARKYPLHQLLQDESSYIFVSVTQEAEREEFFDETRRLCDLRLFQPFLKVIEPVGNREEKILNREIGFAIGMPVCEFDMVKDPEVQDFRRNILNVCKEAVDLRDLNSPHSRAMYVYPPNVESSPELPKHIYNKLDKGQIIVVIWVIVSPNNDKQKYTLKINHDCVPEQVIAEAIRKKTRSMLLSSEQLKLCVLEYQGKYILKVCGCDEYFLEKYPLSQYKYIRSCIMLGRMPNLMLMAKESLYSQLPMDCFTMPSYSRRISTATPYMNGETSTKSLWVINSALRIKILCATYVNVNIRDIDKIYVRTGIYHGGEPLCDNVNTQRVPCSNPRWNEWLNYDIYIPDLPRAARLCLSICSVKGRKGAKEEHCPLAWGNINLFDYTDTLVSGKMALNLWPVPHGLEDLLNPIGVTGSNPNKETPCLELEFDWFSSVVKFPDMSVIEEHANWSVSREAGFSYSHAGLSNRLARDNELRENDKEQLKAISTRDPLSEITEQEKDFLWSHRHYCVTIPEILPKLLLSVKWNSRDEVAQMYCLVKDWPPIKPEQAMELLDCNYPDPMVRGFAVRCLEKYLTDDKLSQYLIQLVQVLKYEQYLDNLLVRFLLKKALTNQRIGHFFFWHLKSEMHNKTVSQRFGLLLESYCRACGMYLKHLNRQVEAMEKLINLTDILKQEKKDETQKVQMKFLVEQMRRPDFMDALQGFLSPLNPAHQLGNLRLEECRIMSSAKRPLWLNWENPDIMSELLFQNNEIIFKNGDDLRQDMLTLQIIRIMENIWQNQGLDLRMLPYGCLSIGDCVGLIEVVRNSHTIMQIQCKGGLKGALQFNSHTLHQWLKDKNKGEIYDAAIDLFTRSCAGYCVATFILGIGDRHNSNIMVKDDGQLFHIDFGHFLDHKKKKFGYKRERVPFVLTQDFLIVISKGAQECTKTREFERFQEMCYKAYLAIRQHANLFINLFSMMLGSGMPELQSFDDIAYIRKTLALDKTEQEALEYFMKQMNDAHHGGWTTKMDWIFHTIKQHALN
# Chain of Phosphatidylinositol 4,5-bisphosphate 3-kinase catalytic subunit beta isoform (P42338 whole entry, canonical isoform): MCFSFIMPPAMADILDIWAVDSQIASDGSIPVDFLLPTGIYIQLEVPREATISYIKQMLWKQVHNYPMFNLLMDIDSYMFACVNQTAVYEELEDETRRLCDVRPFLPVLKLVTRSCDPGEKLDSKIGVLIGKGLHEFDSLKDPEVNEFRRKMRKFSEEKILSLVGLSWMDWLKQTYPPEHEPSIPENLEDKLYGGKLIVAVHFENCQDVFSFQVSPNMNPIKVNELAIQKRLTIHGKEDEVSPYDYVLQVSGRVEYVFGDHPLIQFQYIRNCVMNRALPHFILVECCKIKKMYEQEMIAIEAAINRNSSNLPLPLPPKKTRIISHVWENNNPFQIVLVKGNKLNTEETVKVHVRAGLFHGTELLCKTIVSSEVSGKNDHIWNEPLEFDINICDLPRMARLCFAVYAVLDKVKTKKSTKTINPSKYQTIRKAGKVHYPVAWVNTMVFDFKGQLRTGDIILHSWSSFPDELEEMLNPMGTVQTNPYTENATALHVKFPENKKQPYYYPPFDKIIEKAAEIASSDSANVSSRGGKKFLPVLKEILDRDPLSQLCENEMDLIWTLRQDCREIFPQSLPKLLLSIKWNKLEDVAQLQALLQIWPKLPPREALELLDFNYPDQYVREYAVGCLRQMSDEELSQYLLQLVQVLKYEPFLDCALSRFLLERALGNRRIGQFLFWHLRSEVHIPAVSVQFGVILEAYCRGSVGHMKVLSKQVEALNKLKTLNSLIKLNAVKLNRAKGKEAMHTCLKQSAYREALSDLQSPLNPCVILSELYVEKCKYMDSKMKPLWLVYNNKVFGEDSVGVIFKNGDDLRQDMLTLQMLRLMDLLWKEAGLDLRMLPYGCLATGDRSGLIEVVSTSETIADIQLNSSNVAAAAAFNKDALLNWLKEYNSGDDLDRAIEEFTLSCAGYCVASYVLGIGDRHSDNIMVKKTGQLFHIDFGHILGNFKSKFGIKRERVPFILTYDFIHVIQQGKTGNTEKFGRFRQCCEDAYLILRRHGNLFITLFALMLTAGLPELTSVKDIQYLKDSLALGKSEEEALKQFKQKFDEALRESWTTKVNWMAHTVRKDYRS
IC50 [1] [µM],SMILES,further results
> 10,Nc1ncc(-c2cc(OC3CN(C(=O)C4CC4)C3)cc3c2CNC3=O)cc1C(F)(F)F,–
7.39,C[C@@H]1CN(Cc2nnc(-c3cc4c(c(-c5cc(O)cc(F)c5)c3)CNC4=O)o2)C[C@H](C)O1,–
2.02,O=C1NCc2c1cc(NCCCc1ccccc1)cc2-c1cc(O)cc(F)c1,–
> 10,O=C1NCc2c1cccc2-c1cc(O)cc(F)c1,–
1.8,O=C1NCc2c1cc(O[C@@H]1CCN(C(=O)C3CC3)C1)cc2-c1cc(O)cc(F)c1,–
3.13,O=C1NCc2c1cc(O[C@@H]1CCN(C(=O)C3CCOCC3)C1)cc2-c1cc(O)cc(F)c1,–
> 10,O=C1NCc2c1cc(OC1CN(C(=O)C3CC3)C1)cc2-c1ccc(OC(F)F)nc1,half-life [4]: 3.7 h; clearance [5]: 6.3 mL/min/kg; Vd [6]: 1.4 L/kg

# The remaining lines, values behind:
SMILES,IC50 [1] [µM],further results
O=C1NCc2c1cc(NCCCN1CCOCC1)cc2-c1cccc(O)c1,> 50,IC50 [2]: 25 µM; IC50 [3]: 5.15 µM
O=C1NCc2c1cc(O[C@@H]1CCN(C(=O)C3CC3)C1)cc2-c1cnc(F)c(O)c1,1.09,–
CNc1ncc(-c2cc(OC3CN(C(=O)C4C[C@H]4C)C3)cc3c2CNC3=O)cc1C(F)(F)F (stereo partly drawn),> 10,–
Cn1ncc2cc(-c3cc(OC4CN(C(=O)C5CC5)C4)cc4c3CNC4=O)cnc21,> 10,–
O=C1NCc2c1cc(-c1cccc(F)c1)cc2-c1cc(O)cc(F)c1,> 10,–
O=C1NCc2c1cc(O[C@@H]1CCN(C(=O)C3CC3)C1)cc2-c1cncc(O)c1,3.06,–
Cc1ncc(-c2cc(O[C@@H]3CCN(C(=O)C4CC4)C3)cc3c2CNC3=O)cc1NS(C)(=O)=O,3.01,–
O=C1NCc2c1cc(OC1CN(C(=O)C3CC3)C1)cc2-c1cnc(Cl)c(OC(F)F)c1,> 10,–
O=C1NCc2c1cc(NCCCc1ccccc1)cc2-c1cccc(O)c1,4.33,–
COc1ccc(-c2cc(O[C@@H]3CCN(C(=O)C4CC4)C3)cc3c2CNC3=O)cn1,4.74,–
O=C1NCc2c1cc(O[C@@H]1CCN(C(=O)C3CC(F)(F)C3)C1)cc2-c1cc(O)cc(F)c1,1.35,–
